# The source made the active and inactive calls. The rule behind the calls is not given here.
# Assays:
# Type in all cases: functional
# Candida [1] = assay: Antifungal activity against Candida-6 after 72 to 96 hr by two-fold serial dilution method
# Candida [2] = assay: Antifungal activity against Candida-51 after 72 to 96 hr by two-fold serial dilution method
# Staphylococcus aureus = assay: Antibacterial activity against Staphylococcus aureus after 24 hr by two-fold serial dilution method
# Aspergillus niger = assay: Antifungal activity against Aspergillus niger after 72 to 96 hr by two-fold serial dilution method
# Enterococcus faecalis = assay: Antibacterial activity against Enterococcus faecalis after 24 hr by two-fold serial dilution method
# Pseudomonas aeruginosa = assay: Antibacterial activity against Pseudomonas aeruginosa after 24 hr by twofold serial dilution method
# Aspergillus flavus = assay: Antifungal activity against Aspergillus flavus after 72 to 96 hr by two-fold serial dilution method
# Bacillus subtilis = assay: Antibacterial activity against Bacillus subtilis after 24 hr by two-fold serial dilution method
# Escherichia coli = assay: Antibacterial activity against Escherichia coli after 24 hr by two-fold serial dilution method
SMILES,MIC (Candida [1]) [µg/mL],MIC (Candida [2]),MIC (Staphylococcus aureus) [µg/mL],MIC (Aspergillus niger),MIC (Enterococcus faecalis),MIC (Pseudomonas aeruginosa),MIC (Aspergillus flavus) [µg/mL],MIC (Bacillus subtilis) [µg/mL],MIC (Escherichia coli)
O=[N+]([O-])c1ccccc1/C=N/N=C1\C[C@@H](c2ccccc2)S[C@@H](c2ccccc2)C1 (relative stereo),50,25 µg/mL,25,100 µg/mL,50 µg/mL,50 µg/mL,100,25,100 µg/mL
N/N=C1\C[C@@H](c2ccccc2)S[C@@H](c2ccccc2)C1 (relative stereo),50,100 µg/mL,100,100 µg/mL,100 µg/mL,100 µg/mL,100,100,50 µg/mL
O/N=C1\C[C@@H](c2ccccc2)S[C@@H](c2ccccc2)C1,100,inactive,100,inactive,inactive,inactive,100,100,inactive
c1ccc([C@@H]2C/C(=N\N=C3/C[C@@H](c4ccccc4)S[C@@H](c4ccccc4)C3)C[C@H](c3ccccc3)S2)cc1,100,50 µg/mL,25,50 µg/mL,100 µg/mL,50 µg/mL,100,50,100 µg/mL
C[C@@H]1[C@H](O)[C@@H](C)/C=C/C=C/C=C/C=C/C=C/C=C/C=C/[C@H](O[C@@H]2O[C@H](C)[C@@H](O)[C@H](N)[C@@H]2O)C[C@@H]2O[C@](O)(C[C@@H](O)C[C@@H](O)[C@H](O)CC[C@@H](O)C[C@@H](O)CC(=O)O[C@H]1C)C[C@H](O)[C@H]2C(=O)O [AMPHOTERICIN B],25,25 µg/mL,,50 µg/mL,,,50,,
COc1ccc(/C=N/N=C2\C[C@@H](c3ccccc3)S[C@@H](c3ccccc3)C2)cc1 (relative stereo),12.5,12.5 µg/mL,25,50 µg/mL,25 µg/mL,50 µg/mL,100,6.25,12.5 µg/mL
Oc1ccccc1/C=N/N=C1\C[C@@H](c2ccccc2)S[C@@H](c2ccccc2)C1 (relative stereo),12.5,12.5 µg/mL,25,25 µg/mL,25 µg/mL,25 µg/mL,50,6.25,12.5 µg/mL
CN[C@@H]1[C@H](O[C@H]2[C@H](O[C@H]3[C@H](O)[C@@H](O)[C@H](N=C(N)N)[C@@H](O)[C@@H]3N=C(N)N)O[C@@H](C)[C@]2(O)C=O)O[C@@H](CO)[C@H](O)[C@H]1O [STREPTOMYCIN],,,25,,50 µg/mL,25 µg/mL,,12.5,12.5 µg/mL
O=C1C[C@@H](c2ccccc2)S[C@@H](c2ccccc2)C1,100,inactive,100,inactive,inactive,inactive,100,100,inactive
